Measured values: patent US20180251425A1, “2,3,5 TRISUBSTITUTED PYRROLE DERIVATIVES AS TOPOISOMERASE INHIBITORS AND THERAPEUTIC USES THEREOF” (UNIVERSITY OF MYSORE, priority 2015, published 2018)

Columns and labels:
HeLa = test: Cytotoxicity in HeLa cells; format: cell-based; settings: Homo sapiens, read-out: Cytotoxicity IC 50 in μM (Cell lines) HeLa
Experimental: (§1) Human cancer cell lines, K562, MCF7, HeLa and HEK 293T were purchased from National Centre for Cell Science, Pune, India. Cells were grown in RPMI 1640/MEM/DMEM supplemented with 10% heat-inactivated fetal bovine serum (FBS), 100 U/mL of Penicillin, and 100 μg of streptomycin/mL and incubated at 37° C. in a humidified atmosphere containing 5% CO2.
Cytotoxic effect of the newly synthesized compounds against leukemic cells was assessed using 3-(4, 5-dimethyl-2-yl02, 5-diphenyl tetrazolium bromide (MTT) assay. After exposure of compound at different concentration (0.01, 0.1, 0.5, 1, 10, 50 and 100 μM) cells were harvested and transferred into 96 well plate, MTT (5 mg/ml) was added and incubate at 37° C. for 4 h and formazan crystals were dissolved by adding solubilizing agent (10% SDS and 50% dimethyl formamide) for 1 h, finally plate was read at 570 nm (Bio-Rad, USA). Results were represented as inhibition of percentage of cell proliferation in bar diagram (n=3) (FIGS. 1 A, C, E and G). […]

[1] = Cytotoxicity in HEK293T cells; format: cell-based; settings: human, HEK293T cells (human embryonic kidney); read-out: Cytotoxicity IC 50 in μM (Cell lines) HEK293T
Experimental: as §1
The human T cell leukemia cell line Molt4, Human acute lymphoblastic leukemia (ALL) cell line Nalm6, Human acute myelocytic leukemia (AML) cell line Reh, chronic myelogenous leukemia (CML) cell line K562, Human breast adenocarcinoma cell lines like MCF7 and human kidney cell line HEK 293T (Human embryonic kidney cell line) were selected for the purpose of preliminary anticancer screening of newly synthesized compounds (ASR1 to ASR15). […]
To determine the growth inhibitory activity of the drug, 0.5×10^5 cell/ml were plated in 24 well (Biofil, USA.) in 1 ml of complete medium and treated with various concentration of the compound to test, cells were stained with 0.4% trypan blue and counted on a hemocytometer after treatment with compounds at 48 and 72 h time point. […]

Question: What does the source list for `CCOC(=O)c1[nH]c(-c2ccc(Cl)cc2)cc1-c1cccnc1` [ASR6, Ethyl 5-(4-chlorophenyl)-3-(pyridin-3-yl)-1H-pyrrole-2-carboxylate]?
Answer: IC50 (HeLa): 0.749 µM; IC50 [1]: 0.866 µM
